This is an account of results in patent US8822517B2, “Arylosulfonamides for the treatment of CNS diseases” (Adamed SP. Z O.O., priority 2010, dated 2014).

Experiment [1] addresses serotoninergic 5-HT7 receptor (Homo sapiens, UniProt P34969). Description: Binding assay 5-HT7 (h), [3H]LSD, CHO cells. More on the design: expressed in transfected cells; host or cells: CHO cells. The note with it: for inhibition at 1 µM: read-out: 5-HT7. In outline:
(§1)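 Compounds tested at a single 1×10^−6 M concentration against the listed radioligands; bound label counted by scintillation, with non-specific binding defined by excess unlabelled ligand and subtracted from total.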

The target of experiment [2] is serotoninergic 5-HT6 receptor (Homo sapiens, UniProt P50406). Briefly: Binding assay 5-HT6 (h), [3H]LSD, CHO cells. More on the design: expressed in transfected cells; host or cells: CHO cells. Conditions: for inhibition at 1 µM: read-out: 5-HT6. In outline: as §1
Experiment [3] concerns the target T1, serotonine transporter (SERT) receptor (Homo sapiens, UniProt P31645).
T1 construct: expressed in transfected cells; host or cells: CHO cells
Description: Binding assay SERT (h), [3H]imipramine, CHO cells. Conditions: for inhibition at 1 µM: read-out: SERT [%]. In outline:
as §1

The target of the next experiment is dopaminergic D3 receptor (Homo sapiens, UniProt P35462). Briefly: Binding assay D3 (h), [3H]methyl-spiperone, CHO cells. More on the design: expressed in transfected cells; host or cells: CHO cells. Conditions: for inhibition at 1 µM: read-out: D3 [%]. The method, boiled down:
as §1

The next experiment has as its target dopaminergic D2 receptor (Homo sapiens, UniProt P14416). Briefly: Binding assay D2S (h), [3H]methyl-spiperone, HEK-293 cells. More on the design: expressed in transfected cells; host or cells: HEK-293 cells. Conditions: for inhibition at 1 µM: read-out: D2 [%]. The method, boiled down: as §1
Experiment [4] has as its target T2, serotoninergic 5-HT1A receptor (Homo sapiens, UniProt P08908).
T2 sequence (P08908 1-422): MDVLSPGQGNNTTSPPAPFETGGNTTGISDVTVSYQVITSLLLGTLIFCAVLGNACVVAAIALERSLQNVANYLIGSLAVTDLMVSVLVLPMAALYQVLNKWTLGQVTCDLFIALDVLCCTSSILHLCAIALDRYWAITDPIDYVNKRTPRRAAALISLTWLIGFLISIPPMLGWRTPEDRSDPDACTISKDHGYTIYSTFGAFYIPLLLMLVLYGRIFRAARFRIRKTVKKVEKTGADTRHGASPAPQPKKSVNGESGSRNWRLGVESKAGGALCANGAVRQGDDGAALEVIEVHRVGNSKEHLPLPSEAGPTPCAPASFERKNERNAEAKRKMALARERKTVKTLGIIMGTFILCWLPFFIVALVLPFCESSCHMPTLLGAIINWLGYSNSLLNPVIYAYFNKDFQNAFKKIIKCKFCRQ
Briefly: Binding assay 5-HT1A (h), [3H]8-OH-DPAT, HEK-293 cells. More on the design: expressed in transfected cells; host or cells: HEK-293 cells. The note with it: for inhibition at 1 µM: read-out: 5-HT1A. In outline: as §1

The subject of a further experiment is adrenergic α1 receptor. Briefly: Binding assay α1 (non-selective), [3H]prazosin, rat cerebral cortex. The note with it: percent inhibition of control specific binding; compounds tested at 1×10^−6 M. The method, boiled down:
as §1

Experiment [5] deals with serotoninergic 5-HT2A receptor (Homo sapiens, UniProt P28223). Description: Binding assay 5-HT2A (h), [3H]ketanserin, HEK-293 cells. More on the design: expressed in transfected cells; host or cells: HEK-293 cells. Conditions: for inhibition at 1 µM: read-out: 5-HT2A. The method, boiled down: as §1
Setting [6] is: percent inhibition of control specific binding, compounds tested at 1×10^−6 M.

Chain of serotoninergic 5-HT6 receptor (P50406 whole entry): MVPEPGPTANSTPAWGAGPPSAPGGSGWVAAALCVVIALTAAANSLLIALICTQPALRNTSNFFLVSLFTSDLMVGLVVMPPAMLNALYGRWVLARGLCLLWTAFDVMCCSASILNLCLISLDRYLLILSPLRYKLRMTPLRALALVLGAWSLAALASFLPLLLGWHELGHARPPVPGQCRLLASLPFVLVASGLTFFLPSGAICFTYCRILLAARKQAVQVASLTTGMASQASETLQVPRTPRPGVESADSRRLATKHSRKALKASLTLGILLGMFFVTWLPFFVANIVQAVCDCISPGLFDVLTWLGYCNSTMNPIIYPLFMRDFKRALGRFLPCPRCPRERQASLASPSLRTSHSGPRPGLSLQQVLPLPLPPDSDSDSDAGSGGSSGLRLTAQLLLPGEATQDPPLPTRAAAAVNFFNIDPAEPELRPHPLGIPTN
Chain of serotoninergic 5-HT7 receptor (P34969 whole entry): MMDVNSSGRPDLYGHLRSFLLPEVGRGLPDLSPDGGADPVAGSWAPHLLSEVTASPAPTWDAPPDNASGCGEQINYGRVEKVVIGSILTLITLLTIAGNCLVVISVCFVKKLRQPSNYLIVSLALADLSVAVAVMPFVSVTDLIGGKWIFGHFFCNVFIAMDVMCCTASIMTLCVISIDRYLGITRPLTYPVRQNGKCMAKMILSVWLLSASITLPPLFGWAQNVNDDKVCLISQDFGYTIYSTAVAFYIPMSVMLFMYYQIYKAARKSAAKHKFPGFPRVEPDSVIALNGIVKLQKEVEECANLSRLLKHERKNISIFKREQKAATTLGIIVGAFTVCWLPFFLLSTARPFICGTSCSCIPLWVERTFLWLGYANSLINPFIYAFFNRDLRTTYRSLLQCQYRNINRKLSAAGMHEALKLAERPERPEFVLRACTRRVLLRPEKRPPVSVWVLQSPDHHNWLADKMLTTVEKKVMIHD
Chain of dopaminergic D3 receptor (P35462 whole entry): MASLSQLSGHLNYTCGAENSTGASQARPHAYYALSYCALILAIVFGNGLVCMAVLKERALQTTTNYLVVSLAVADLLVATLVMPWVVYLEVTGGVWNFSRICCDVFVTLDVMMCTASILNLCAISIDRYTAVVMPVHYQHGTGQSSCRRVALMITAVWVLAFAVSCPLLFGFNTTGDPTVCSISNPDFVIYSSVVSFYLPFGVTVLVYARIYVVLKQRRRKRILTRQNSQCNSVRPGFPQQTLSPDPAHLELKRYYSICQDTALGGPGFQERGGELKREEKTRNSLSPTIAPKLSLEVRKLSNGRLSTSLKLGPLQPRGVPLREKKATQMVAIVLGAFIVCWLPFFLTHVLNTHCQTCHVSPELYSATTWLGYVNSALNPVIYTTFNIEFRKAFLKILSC
T1 sequence (P31645 whole entry): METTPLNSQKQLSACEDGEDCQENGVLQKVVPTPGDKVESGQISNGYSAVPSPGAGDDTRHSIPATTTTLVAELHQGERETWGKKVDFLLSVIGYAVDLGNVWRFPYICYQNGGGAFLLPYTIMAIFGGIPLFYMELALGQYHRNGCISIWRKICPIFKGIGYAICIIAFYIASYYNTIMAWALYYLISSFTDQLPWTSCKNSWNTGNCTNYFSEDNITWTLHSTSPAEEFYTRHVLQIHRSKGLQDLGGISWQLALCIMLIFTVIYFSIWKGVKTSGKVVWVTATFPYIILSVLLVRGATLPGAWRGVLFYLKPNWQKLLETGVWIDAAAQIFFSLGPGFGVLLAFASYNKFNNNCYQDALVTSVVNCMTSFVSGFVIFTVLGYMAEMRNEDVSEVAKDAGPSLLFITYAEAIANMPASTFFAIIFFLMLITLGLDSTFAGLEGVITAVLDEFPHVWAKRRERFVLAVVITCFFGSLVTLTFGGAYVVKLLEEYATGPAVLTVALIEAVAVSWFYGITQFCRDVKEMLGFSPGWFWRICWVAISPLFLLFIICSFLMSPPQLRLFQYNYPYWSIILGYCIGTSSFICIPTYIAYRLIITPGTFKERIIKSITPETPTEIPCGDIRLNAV
Chain of serotoninergic 5-HT2A receptor (P28223 whole entry): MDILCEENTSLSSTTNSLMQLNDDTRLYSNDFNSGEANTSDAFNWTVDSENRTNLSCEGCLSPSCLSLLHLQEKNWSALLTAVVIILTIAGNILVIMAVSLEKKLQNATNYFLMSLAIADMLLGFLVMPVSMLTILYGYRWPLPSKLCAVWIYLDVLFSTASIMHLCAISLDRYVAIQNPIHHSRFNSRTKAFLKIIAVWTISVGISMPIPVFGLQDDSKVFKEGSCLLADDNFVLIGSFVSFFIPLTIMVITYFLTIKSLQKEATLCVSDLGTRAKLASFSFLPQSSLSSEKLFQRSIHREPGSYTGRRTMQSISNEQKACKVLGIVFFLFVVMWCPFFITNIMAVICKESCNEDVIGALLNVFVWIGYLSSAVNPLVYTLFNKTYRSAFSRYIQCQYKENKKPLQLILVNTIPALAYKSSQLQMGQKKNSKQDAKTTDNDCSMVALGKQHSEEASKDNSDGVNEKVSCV
Chain of dopaminergic D2 receptor (P14416 1-414 isoform P14416-2): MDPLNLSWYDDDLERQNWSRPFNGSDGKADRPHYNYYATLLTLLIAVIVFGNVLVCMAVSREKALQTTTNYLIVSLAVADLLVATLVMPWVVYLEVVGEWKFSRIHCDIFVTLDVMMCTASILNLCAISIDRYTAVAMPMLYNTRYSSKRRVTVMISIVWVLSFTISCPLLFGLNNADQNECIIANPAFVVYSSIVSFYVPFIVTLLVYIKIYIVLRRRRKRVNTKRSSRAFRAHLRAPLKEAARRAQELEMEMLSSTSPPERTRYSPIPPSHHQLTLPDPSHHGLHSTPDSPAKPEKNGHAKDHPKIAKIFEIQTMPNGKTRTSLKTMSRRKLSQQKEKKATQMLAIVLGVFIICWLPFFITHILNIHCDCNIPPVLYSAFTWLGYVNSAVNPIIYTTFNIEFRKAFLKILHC

On to `Cc1cccc(S(=O)(=O)NCCCN2CCN(c3cccc4[nH]c(=O)[nH]c34)CC2)c1` [Compound 426, 3-Methyl-N-[3-[4-(2-oxo-1,3-dihydrobenzimidazol-4-yl)piperazin-1-yl]propyl]benzenesulphonamide], for which the inhibition at 1 µM in experiment [1] was 85%; in experiment [2], -4%; in experiment [3] it was -18%; at dopaminergic D3 receptor, 94%; at dopaminergic D2 receptor, 28%; in experiment [4], 79%. In experiment [5], the inhibition at 1 µM was determined as 20%. Further, in the experiment on adrenergic α1 receptor, the “α1 [%]” value was determined as 67%.
In the case of `COc1cccc(S(=O)(=O)NCCCN2CCN(c3nsc4ccccc34)CC2)c1` [Compound 255, N-[3-[4-(1,2-Benzothiazol-3-yl)piperazin-1-yl]propyl]-3-methoxybenzenesulphonamide], the inhibition at 1 µM was 91% in experiment [1]; 68% in experiment [2]; 29% in experiment [3]; 82% on dopaminergic D3 receptor; 98% on dopaminergic D2 receptor; 93% in experiment [4]. In addition, the inhibition at 1 µM in experiment [5] was 84%. Further, the “α1 [%]” value in the experiment on adrenergic α1 receptor was 92%.
Turning to `O=S(=O)(NCCCCN1CCN(c2noc3ccccc23)CC1)c1cccc(Cl)c1` [Compound 85, N-[4-[4-(1,2-Benzoxazol-3-yl)piperazin-1-yl]butyl]-3-chlorobenzenesulphonamide], the inhibition at 1 µM was 99% in experiment [1]; 77% in experiment [2]; 2% in experiment [3]; 77% at dopaminergic D3 receptor; 100% at dopaminergic D2 receptor; 54% in experiment [4]. In experiment [5], the inhibition at 1 µM came to 88%. In addition, the “α1 [%]” value in the experiment with adrenergic α1 receptor is listed as 98%.
Turning to `O=S(=O)(NCCCCN1CCN(c2nsc3ccccc23)CC1)c1cccs1` [Compound 238, N-[4-[4-(1,2-Benzothiazol-3-yl)piperazin-1-yl]butyl]thiophene-2-sulphonamide], the inhibition at 1 µM in experiment [1] was found to be 88%; in experiment [2], 74%; in experiment [3] it was 13%; on dopaminergic D3 receptor it was 85%; on dopaminergic D2 receptor it was 87%; in experiment [4] it was 90%. In addition, the inhibition at 1 µM in experiment [5] came out at 95%. For the same molecule, the “α1 [%]” value with adrenergic α1 receptor is 103%.
`Cc1[nH]c2ccc(Cl)cc2c1C1=CCN(CCCNS(=O)(=O)c2cccc3ccccc23)CC1` [Compound 441, N-[3-[4-(5-Chloro-2-methyl-1H-indol-3-yl)-3,6-dihydro-2H-pyridin-1-yl]propyl]-naphthalene-1-sulphonamide]: the inhibition at 1 µM in experiment [1] was found to be 82%; in experiment [2], 84%; in experiment [3] it was 1%; at dopaminergic D3 receptor, 72%; on dopaminergic D2 receptor, 77%; in experiment [4], 54%. Besides, in experiment [5], the inhibition at 1 µM amounted to 57%. Also, the “α1 [%]” value with adrenergic α1 receptor came to 16%.
On to `O=S(=O)(NCCCCN1CCN(c2nsc3ccccc23)CC1)c1ccc(-c2ccccc2)cc1` [Compound 237, N-[4-[4-(1,2-Benzothiazol-3-yl)piperazin-1-yl]butyl]-4-phenylbenzenesulphonamide], for which the inhibition at 1 µM in experiment [1] was 64%; in experiment [2], 89%; in experiment [3], -7%; on dopaminergic D3 receptor it was 85%; at dopaminergic D2 receptor, 62%; in experiment [4], 51%. For the same molecule, the inhibition at 1 µM in experiment [5] turned out to be 24%. Also, the “α1 [%]” value in the experiment with adrenergic α1 receptor was determined as 87%.
For `O=S(=O)(NCCCCN1CCN(c2cccc3c2OCCO3)CC1)c1ccc(Cl)s1` [Compound 398, 5-Chloro-N-[4-[4-(2,3-dihydro-1,4-benzodioxin-5-yl)piperazin-1-yl]butyl]thiophene-2-sulphonamide], the inhibition at 1 µM in experiment [1] was 97%; in experiment [2] it was 3%; in experiment [3] it was -7%; at dopaminergic D3 receptor, 90%; on dopaminergic D2 receptor, 73%; in experiment [4], 107%. Further, in experiment [5], the inhibition at 1 µM turned out to be 38%. Besides, the “α1 [%]” value with adrenergic α1 receptor is given as 97%.
Turning to `O=S(=O)(NCCCCN1CCC(c2noc3cc(F)ccc23)CC1)c1ccc(C(F)(F)F)cc1` [Compound 302, N-[4-[4-(6-Fluoro-1,2-benzoxazol-3-yl)piperidin-1-yl]butyl]-4-(trifluoromethyl)benzenesulphonamide], the inhibition at 1 µM in experiment [1] was 101%; in experiment [2] it was 72%; in experiment [3], 19%; on dopaminergic D3 receptor it was 99%; on dopaminergic D2 receptor, 90%; in experiment [4], 50%. Besides, the inhibition at 1 µM in experiment [5] was determined as 95%. Besides, the “α1 [%]” value in the experiment with adrenergic α1 receptor was found to be 100%.
Regarding `O=S(=O)(NCCCCN1CCN(c2cccc3c2OCCO3)CC1)c1ccc(F)c(Cl)c1` [Compound 392, 3-Chloro-N-[4-[4-(2,3-dihydro-1,4-benzodioxin-5-yl)piperazin-1-yl]butyl]-4-fluorobenzenesulphonamide], the inhibition at 1 µM is 91% in experiment [1]; 7% in experiment [2]; -11% in experiment [3]; 93% at dopaminergic D3 receptor; 57% on dopaminergic D2 receptor; 100% in experiment [4]. Besides, in experiment [5], the inhibition at 1 µM amounted to 64%. Besides, in the experiment with adrenergic α1 receptor, the “α1 [%]” value was determined as 99%.
As for `O=S(=O)(NCCCCN1CCN(c2nsc3ccccc23)CC1)c1ccc(Cl)cc1` [Compound 227, N-[4-[4-(1,2-Benzothiazol-3-yl)piperazin-1-yl]butyl]-4-chlorobenzenesulphonamide], the inhibition at 1 µM was determined as 94% in experiment [1]; 76% in experiment [2]; 2% in experiment [3]; 90% at dopaminergic D3 receptor; 104% at dopaminergic D2 receptor; 89% in experiment [4]. Also, the inhibition at 1 µM in experiment [5] is 90%. The “α1 [%]” value in the experiment on adrenergic α1 receptor was 92%.
For `O=S(=O)(NCCCCN1CCN(c2noc3ccccc23)CC1)c1ccc2cn[nH]c2c1` [Compound 291, N-[4-[4-(1,2-Benzoxazol-3-yl)piperazin-1-yl]butyl]-1H-indazole-6-sulphonamide], the inhibition at 1 µM in experiment [1] was determined as 99%; in experiment [2], 83%; in experiment [3] it was 8%; at dopaminergic D3 receptor it was 85%; on dopaminergic D2 receptor it was 99%; in experiment [4], 38%. Also, the inhibition at 1 µM in experiment [5] came out at 83%. In addition, the “α1 [%]” value in the experiment with adrenergic α1 receptor is listed as 99%.
As for `O=S(=O)(NCCCCN1CCN(c2nsc3ccccc23)CC1)c1cccc(C(F)(F)F)c1` [Compound 235, N-[4-[4-(1,2-Benzothiazol-3-yl)piperazin-1-yl]butyl]-3-(trifluoromethyl)benzenesulphonamide], the inhibition at 1 µM in experiment [1] is 93%; in experiment [2], 82%; in experiment [3] it was 8%; at dopaminergic D3 receptor, 87%; at dopaminergic D2 receptor, 103%; in experiment [4], 86%. The inhibition at 1 µM in experiment [5] came to 80%. Further, the “α1 [%]” value in the experiment on adrenergic α1 receptor is recorded as 95%.
In turn, “N-[4-[4-(1H-Indol-4-yl)piperazin-1-yl]butyl]-1,3-benzodioxole-5-sulphonamide [Compound 365]” yielded a 5-HT7 in experiment [1] (setting [6]) of 95%. The 5-HT6 in experiment [2] (setting [6]) was 67%. The “SERT [%]” value in experiment [3] (setting [6]) is given as 25%. Besides, the “D3 [%]” value on dopaminergic D3 receptor (setting [6]) is listed as 100%. Moreover, the “D2 [%]” value at dopaminergic D2 receptor (setting [6]) was found to be 99%. In experiment [4] (setting [6]), the 5-HT1A was 90%. In addition, the “α1 [%]” value in the experiment on adrenergic α1 receptor worked out at 100%. Besides, in experiment [5] (setting [6]), the 5-HT2A turned out to be 55%.
On to `O=S(=O)(NCCCCN1CCN(c2nsc3ccccc23)CC1)c1ccc(Cl)s1` [Compound 195, N-[4-[4-(1,2-Benzothiazol-3-yl)piperazin-1-yl]butyl]-5-chloro-thiophene-2-sulphonamide], for which the inhibition at 1 µM is 98% in experiment [1]; 60% in experiment [2]; -3% in experiment [3]; 89% at dopaminergic D3 receptor; 99% on dopaminergic D2 receptor; 89% in experiment [4]. The inhibition at 1 µM in experiment [5] was determined as 91%. Further, the “α1 [%]” value in the experiment on adrenergic α1 receptor worked out at 96%.
